Here are results for three compounds from US6465522B1, “Anthraquinone anticancer drugs” (priority 1998, dated 2002).

Common to all, as to format: cell-based
The subject of one test is A2780. Briefly: MTT growth inhibition, A2780 parental ovarian cancer cell line. To be noted: MTT assay, 24 hour drug exposure, mean of triplicate, read-out: Growth Inhibition of Ovarian Cancer Cell Lines (IC50/nM) A2780. The method, then:
(§1) The cells used for the anticancer activity measurements were the parental ovarian cell line designated as A2780, the doxorubicin-resistant variant designated as 2780AD, and the cisplatin-resistant variant designated as 2780CP (also known as CP70). Drug sensitivity in these cell lines was measured by the standard MTT assay (Carmichael et al., 1987, Cancer Research, 47: 936) with a 24 hour drug exposure time. The values obtained are mean values of triplicate measurements.
Background: Tetrazolium assays rely on reduction of a dye to a coloured formazan, in cell work by metabolically active cells.

A further test relates to 2780AD. Briefly: MTT growth inhibition, 2780AD adriamycin (doxorubicin) resistant ovarian cancer cell line. The method, then: as §1
The test system of another test is 2780CP. Nature of the test: MTT growth inhibition, 2780CP cisplatin resistant ovarian cancer cell line. The method, then:
as §1

A further test deals with SKOV-3. Briefly: Antitumour activity in drug resistant ovarian cancer cell line SKOV-3. The following applies: SKOV-3 drug resistant ovarian cancer cell line.
The next test has as its system CH1cisR. Briefly: Antitumour activity in drug resistant ovarian cancer cell line CH1cisR.
[1] abbreviates: 2780CP cisplatin resistant variant, MTT assay, 24 hour drug exposure, mean of triplicate, read-out: Growth Inhibition of Ovarian Cancer Cell Lines (IC50/nM) 2780CP.
Setting [2] is: 2780AD adriamycin resistant variant, MTT assay, 24 hour drug exposure, mean of triplicate, read-out: Growth Inhibition of Ovarian Cancer Cell Lines (IC50/nM) 2780AD.

Like-named read-outs stand apart in the source and are kept apart here.

Turning to `CN(C)CCNc1ccc(NCCN(CCCl)CCCl)c2c1C(=O)c1c(O)ccc(O)c1C2=O` [Compound (2)], the IC50 with A2780 amounted to 4 ± 0.6 nM; with 2780AD (2780AD, read-out: IC50 2780AD) it was 16 nM; in the test on 2780CP (setting [1]), 11.8 ± 1.4 nM; with 2780CP (2780CP, read-out: IC50 2780CP), 12 nM; in the test with SKOV-3, 490 nM; in the test with CH1cisR, 19 nM.
On to `COc1cccc2c1C(=O)c1c(O)c3c(c(O)c1C2=O)C[C@@](O)(C(=O)CO)C[C@@H]3O[C@H]1C[C@H](N)[C@H](O)[C@H](C)O1` [Adriamycin, adriamycin], for which the IC50 in the test on A2780 (Homo sapiens) was determined as 5 ± 1.1 nM; with 2780AD (setting [2]), 4860 ± 510 nM; with 2780CP (setting [1]) it was 13.3 ± 0.9 nM.
`N.N.[Cl][Pt][Cl]` [Cisplatin, cisplatin]: the IC50 with A2780 is 340 ± 60 nM; in the test with 2780AD (setting [2]), 3020 ± 220 nM; in the test with 2780CP (setting [1]), 2620 ± 730 nM.
